The results in this text go back to patent US5654310A, “Triazolopyrimidones their preparation and use” (BASF Aktiengesellschaft, priority 1992, dated 1997).

Test [1] deals with T1, NMDA (N-methyl-D-aspartate) receptor (Rattus norvegicus, UniProt P35439).
T1 construct: freshly removed rat cerebra were homogenized; from tissue; host or cells: rat cerebrum, washed membranes
The test is described as follows: Binding of ^3 H-5,7-dichlorokynurenic acid (displacement on rat cerebral membranes). The conditions noted are these: rat cerebra membranes, pH 7.4, 30 minutes on ice.

Test [2] addresses AMPA receptor. Briefly: Binding of ^3 H-AMPA (displacement on rat cerebral membranes). The conditions noted are these: rat cerebra membranes, pH 7.1, 60 minutes on ice. The protocol: For this, the membrane material was treated in the presence of the compounds according to the invention with the radio-labeled substances ^3 H-2-amino-3-hydroxy-5-methyl-4-isoxazolepropionic acid (^3 H-AMPA) and ^3 H-5,7-dichlorocyanuric [sic] acid, which bind to specific receptors (AMPA and NMDA (N-methyl-D-aspartate) receptors respectively). Subsequently the radioactivity in the treated membranes was measured by scintillation counting. It was possible from the bound radioactivity to determine the amounts of bound 3H AMPa and ^3 H-5,7-dichlorokyanurenicacid, or the amounts of each of these radiolabeled substances displaced.
1. Binding of ^3 H-2-amino-3-hydroxy-5-methyl-4-isoxazolepropionic acid (^3 H-AMPA).
To prepare the membrane material, freshly removed rat cerebra were homogenized together with about 15 times the volume of a buffer solution A composed of 30 mM α,α,α-tris(hydroxymethyl)methylamine hydrochloride (TRIS-HCl) and 0.5 mM ethylenediaminetetraacetic acid (EDTA), pH 7.4, using an Ultra-TURRAX. The suspension was centrifuged at 48,000 g for 20 min. After removal of the supernatant liquid, the protein-containing membrane material present in the pellet was washed three times by suspension in buffer solution A and subsequent centrifugation at 48,000 g for 20 minutes each time. The membrane material was then suspended in 15 times the volume of buffer solution A and incubated at 37° C. for 30 minutes. Subsequently the protein material was washed twice by centrifugation and suspension and was stored at -70° C. until used.
For the binding test, the protein material was thawed at 37° C. and washed twice by centrifugation at 48,000 g (20 min) and subsequent suspension in a buffer solution B composed of 50 mM TRIS-HCl, 0.1M potassium thiocyanate and 2.5 mM calcium chloride, pH 7.1. […] The filtrate [sic] was subsequently washed with 5 ml of cold buffer solution B in order to separate bound and free ^3 H-AMPA from one another. After measurement of the radioactivity of the bound ^3 H-AMPA in the membrane material by scintillation counting, the KI was determined by regression analysis of the displacement plots.

What is called Ki is a measure of affinity in units of concentration, obtained from inhibition or displacement. The low end stands for a stronger hold on the target, the high end for a looser hold on the target. In the case of `O=C(O)c1nc2c3c(nc(=O)n2[nH]1)CCCC3` [Example 2, 7,8,9,10-Tetrahydro-1,2,4-triazolo[1,5-c]quinazolin-5-one-2-carboxylic acid], the Ki in test [1] was determined as 200 nM.

As for `O=C(NCc1ccccc1)c1nc2c3c([nH]c(=O)n2n1)CCCC3` [Example 3, 7,8,9,10-Tetrahydro-1,2,4-triazolo[1,5-c]quinazolin-5-one-2-carboxylic acid N-benzylolylamide], the Ki in test [1] was 1200 nM; in test [2] it was 1500 nM.

With `O=C(O)c1nc2c3c([nH]c(=O)n2n1)CCC3` [Example 6], in test [1], the Ki was 1600 nM.

In test [1], `CCOC(=O)c1nc2c3c([nH]c(=O)n2n1)CCCCC3` [Example 7] yielded a Ki of 400 nM.

In turn, `O=C(O)c1nc2c3c([nH]c(=O)n2n1)CCCCC3` [Example 8] came in with a Ki in test [1] of 200 nM.

In the case of `CCOC(=O)c1nc2c3c([nH]c(=O)n2n1)-c1ccccc1CC3` [Example 9], the Ki in test [1] was determined as 650 nM.

Consider `O=C(O)c1nc2c3c([nH]c(=O)n2n1)-c1ccccc1CC3` [Example 10], for which the Ki was 300 nM in test [1] and 1700 nM in test [2].

On to `O=C(O)CCc1nc2c3c([nH]c(=O)n2n1)-c1ccccc1CC3` [Example 11], for which the Ki in test [1] is 100 nM; in test [2], 1000 nM.

As to `O=C(NCc1ccc(Cl)c(Cl)c1)c1nc2c3c([nH]c(=O)n2n1)CCCC3` [Example 12], the affinity in test [1], expressed as Ki, was 1600 nM.

For the compound `O=C(NCc1ccc([N+](=O)[O-])cc1)c1nc2c3c([nH]c(=O)n2n1)CCCC3` [Example 15], in test [1], the affinity, expressed as Ki, was 2000 nM.

Regarding `O=C(O)c1nc2c3c([nH]c(=O)n2n1)CCSC3` [Example 18], the affinity in test [1] corresponds to a Ki of 800 nM.

With `CCOC(=O)c1nc2c3c([nH]c(=O)n2n1)CC1CCCCC1C3` (stereo not shown) [Example 21], the Ki in test [1] came to 2600 nM; in test [2], 1700 nM.
